Converted amounts (≈) assume the structure as drawn.
Assays:
[1] = tested on: antibody RS2845 (raised against Immunogen II); assay: Competitive ELISA: HRP tracer (Tracer 1) versus pregabalin or potential cross-reactants for binding sites of polyclonal antibody RS2845; conditions: for % Cross-Reactivity: % CR = IC50 pregabalin/IC50 CR x 100, cross-reactants assessed at 5 μg/ml, (S) pregabalin as calibrator; for IC50 (standard concentration which produces 50% B/B0): antibody RS2845 coated at 5 μg/ml, Tracer 1, (S) enantiomer of pregabalin as calibrator
Experimental: The antibody titre is evaluated by coating a microtitre plate (Thermo Fisher Scientific NUNC, 468667) with antibody (125 μl/well) in coating buffer (10 mM Tris pH 8.5) at 37° C. for 2 hours. The plate is then washed 4 times over 10 minutes with working strength mixture of Tris-Buffered Saline and Tween 20 (TBST). 50 μl of sample/standard (pregabalin) is added to the appropriate wells in triplicate, followed by 75 μl of hapten-HRP conjugate and incubated at 25° C. for 1 hour. The plate is then washed and 125 μl of TMB (Randox Laboratories, 4380-15) added to each well and left at room temperature for 20 mins in the dark. The reaction is stopped using 125 μl of 0.2 M sulphuric acid. The absorbances are read at 450 nm with an ELISA microplate reader (BIO-TEK Instruments, Elx800) and the means calculated. Antibody sensitivity can then be determined.
IgG was extracted from serum from the immunized animal the using ammonium sulphate/caprylic acid precipitation and the purified antibody was immobilised on a 96 well ELISA plate at 5 μg/ml in 10 mM TRIS buffer, pH 8.5 overnight at 4° C. The assay was based on competition for binding sites of a polyclonal antibody between HRP tracer and pregabalin or potential cross-reactants. The plate was washed (×3) with TBST and the calibrator (pregabalin) or potential cross reactants added (50 μl per well), followed by HRP tracer (75 μl/well) to the appropriate wells. The plates were then incubated for 60 minutes at 25° C. They were then subjected to 2 quick wash cycles using TBST, followed by 4×2 minute wash cycles. 125 μL of signal 25 (TMB) was then added to each well for 20 mins at room temperature in the dark. The reaction was stopped by the addition of 125 μl of 0.2 M Sulphuric Acid per well and the plates read immediately at 450 nm. Calibration curves were generated and these were used to determine the sensitivity and specificity of the immunoassay for pregabalin and potential cross-reactants. The data was inputted to a computer program called ‘KC Junior’ (Biotek). […] This program is used to calculate the IC50 values by dividing the 0 ng/ml optical density (OD) value by 2 and obtaining the concentration value from the curve for this OD.
wherein % CR is the percentage cross-reactivity, IC50 pregabalin is the concentration of pregabalin which causes 50% displacement of signal and IC50 CR is the concentration of potential cross-reactant that causes 50% displacement of signal.
The antibody (RS2845) used to generate the data in the tables below was raised from Immunogen II (Example 9) and the HRP tracer was prepared as in Example 10 (Tracer 1).

[2] = in vivo; cited from earlier work

SMILES	% Cross-Reactivity [1] [%]	other results
CCC(C)CC(C)N (centres unmarked) [1,3-dimethylamylamine (DMAA), 1,3-dimethylamylamine]	2.2	
NC(=O)N1c2ccccc2C=Cc2ccccc21 [Carbamazepine]	<1	
N[C@H](CCC(=O)O)C(=O)O [D-Glutamic Acid]	<1	
NC(=O)OCC(COC(N)=O)c1ccccc1 [Felbamate]	<1	
NCC1(CC(=O)O)CCCCC1 [Gabapentin]	<1	
NCCCC(=O)O [Gamma-aminobutyric acid]	<1	
N[C@@H](CCC(=O)O)C(=O)O [L-Glutamic Acid]	<1	
COC[C@@H](NC(C)=O)C(=O)NCc1ccccc1 [Lacosamide]	<1	
CC[C@@H](C(N)=O)N1CCCC1=O [Levetiracetam]	<1	
CNC[C@H](CC(=O)O)CC(C)C [N-methylpregabalin, N-methyl pregabalin]	<1	
CC(C)CC(CN)CC(=O)O (centres unmarked) [Pregabalin, 3-(aminomethyl)-5-methylhexanoic acid]	100	IC50 (standard concentration which produces 50% B/B0) [1]: 0.266 ng/mL (≈ 1.67 nM); IC50 (standard concentration which produces 50% B/B0) ([1]; listed as pregabalin): about 0.266 ng/ml; B/B0 ([1]; pregabalin 0.02 ng/ml): 76%; B/B0 ([1]; pregabalin 0.08 ng/ml): 52%; B/B0 ([1]; pregabalin 0.31 ng/ml): 28%; B/B0 ([1]; pregabalin 1.25 ng/ml): 14%; B/B0 ([1]; pregabalin 5.00 ng/ml): 7%; Dose excreted unchanged in the urine [2]: about 98%; Metabolism [2]: negligible metabolism
NCCc1c[nH]c2ccc(O)cc12 [Serotonin]	<1	
CC(C)(C)C(O)/C=C/c1ccc2c(c1)OCO2 (centres unmarked) [Stiripentol]	<1	
Cc1ccsc1C(=CCCN1CCC[C@@H](C(=O)O)C1)c1sccc1C [Tiagabine]	<1	
CC1(C)O[C@@H]2[C@@H](CO[C@@]3(COS(N)(=O)=O)OC(C)(C)O[C@@H]23)O1 [Topiramate]	<1	
CCCC(CCC)C(=O)O [Valproic acid]	<1	
C=CC(N)CCC(=O)O (centres unmarked) [Vigabatrin]	<1	

From US20160266153A1, “I[…] PREGABALIN” (Randox Laboratories Limited, priority 2015, published 2016)
